Test: in vivo
Details: male, CD-1, mouse, po
Procedure: CD-1 mice were randomly assigned to 6 groups with 3 male mice in each compound group. […] Compounds were orally administered (PO) in a single dose to each mouse in its group. Blood samples were taken within 72 hours. Bioavailability (F %) was determined and by liquid chromatography-mass spectrometry (LC-MS/MS).

| Structure (SMILES) | bioavailability [%] |
| --- | --- |
| C#Cc1c(F)ccc2cc(O)cc(-c3nc(OC)c4c(N5CC6CCC(C5)N6)nc(OCC5(CN6CC7C(F)C7C6)CC5)nc4c3F)c12 (centres unmarked) [Example 155] | 8.03 |
| C#Cc1c(F)ccc2cc(N)cc(-c3nc(OC)c4c(N5CC6CCC(C5)N6)nc(OCC5(CN6CC7CC7C6)CC5)nc4c3F)c12 (centres unmarked) [Example 184] | 5.75 |
| C#Cc1c(F)ccc2cc(O)cc(-c3nc(OC)c4c(N5CC6CCC(C5)N6C(=O)OC(C)OC(C)=O)nc(OCC5(CN6CC7CC7C6)CC5)nc4c3F)c12 (centres unmarked) [Example 146] | 8.3 |
| C#Cc1c(F)ccc2c(F)c(O)cc(-c3nc(OC)c4c(N5CC6CCC(C5)N6)nc(OCC5(CN6CC7CC7C6)CC5)nc4c3F)c12 (centres unmarked) [Example 168] | 13.6 |
| [2H]C([2H])([2H])Oc1nc(-c2cc(O)cc3ccc(F)c(C#C)c23)c(F)c2nc(OCC3(CN4CC5C(F)C5C4)CC3)nc(N3CC4CCC(C3)N4)c12 (centres unmarked) [Example 167] | 7.14 |
